Experimental data taken from PubChem BioAssay (NCI).
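Growth conditions: 96-well plates. Treatment: test compound, 48 hours, 5 concentrations. Analysis: linear interpolation between bracketing concentrations; unreached endpoints set to highest concentration. Abbreviation: GI50, concentration required for 50% inhibition of growth. TGI: total growth inhibition.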

Experiments:
Experiment in all cases: inhibition of tumour cell growth, NCI panel, 48 h
CCRF-CEM leukemia = test system: CCRF-CEM leukemia
RXF 393 renal = test system: RXF 393 renal
TK-10 renal = test system: TK-10 renal
OVCAR-5 ovarian = test system: OVCAR-5 ovarian
UO-31 renal = test system: UO-31 renal
DMS 273 small cell lung = test system: DMS 273 small cell lung
HL-60(TB) leukemia = test system: HL-60(TB) leukemia
SNB-19 CNS = test system: SNB-19 CNS
U251 CNS = test system: U251 CNS
NCI/ADR-RES ovarian = test system: NCI/ADR-RES ovarian

Row | SMILES | TGI (CCRF-CEM leukemia) | TGI (RXF 393 renal) | TGI (TK-10 renal) | TGI (OVCAR-5 ovarian) | TGI (UO-31 renal) | TGI (DMS 273 small cell lung) | TGI (HL-60(TB) leukemia) | TGI (SNB-19 CNS) | TGI (U251 CNS) | TGI (NCI/ADR-RES ovarian) | GI50 (CCRF-CEM leukemia) | GI50 (RXF 393 renal) | GI50 (NCI/ADR-RES ovarian) | GI50 (TK-10 renal) | GI50 (OVCAR-5 ovarian) | GI50 (UO-31 renal) | GI50 (HL-60(TB) leukemia) | GI50 (SNB-19 CNS) | GI50 (U251 CNS)
1 | O=Cc1ccc(CCl)cc1 | > 100 µM | 31 µM | 45.5 µM | 38.8 µM | 34.8 µM | 38.8 µM | 23.9 µM | 29.4 µM | 35.4 µM |  |  |  |  |  |  |  |  |  | 
2 | COC(=O)C1=C(OC(=O)/C=C/c2ccc(Cl)cc2)C(C(=O)OC)[C@@]2(O)[C@@H](C(=O)OC)[C@H](C)C[C@@H]1[C@@H]2C(=O)OC (some centres undefined) | 64.8 µM | > 100 µM | > 100 µM | 81.7 µM | 57.1 µM |  | 36.1 µM | > 100 µM | > 100 µM | 64.6 µM |  |  |  |  |  |  |  |  | 
3 | COC1(O)c2cccc(Cl)c2C(=O)N1C1(C(N)=O)CCCCC1 (centres undefined) | > 100 µM | > 100 µM |  | > 100 µM | > 100 µM | > 100 µM | > 100 µM | > 100 µM | > 100 µM | > 100 µM |  |  |  |  |  |  |  |  | 
4 | CSc1nc2c(ncn2C2OCC(O)C(O)C2O)c(=O)n1C (centres undefined) | > 100 µM | > 100 µM |  | > 100 µM | > 100 µM | > 100 µM | > 100 µM | > 100 µM | > 100 µM | > 100 µM |  |  |  |  |  |  |  |  | 
5 | COc1cc2c(cc1OC)C(=O)/C(=C/c1cc(OC)c(OC)c(OC)c1)C2 | > 100 µM | > 100 µM |  | > 100 µM | > 100 µM |  | > 100 µM | > 100 µM | > 100 µM | > 100 µM |  |  |  |  |  |  |  |  | 
6 | CN1CCN(Cc2ccc(NC(=O)c3cccc(C#Cc4cnc(N)c5ncccc45)c3F)cc2C(F)(F)F)CC1 | 3.67 µM | 1.3 µM | 12.9 µM | 1.52 µM | 1.54 µM |  | 18.7 µM | 3.72 µM | 1.43 µM | 5.18 µM | 1.01 µM | 0.613 µM | 1.6 µM | 5.67 µM | 0.722 µM | 0.849 µM | 1.68 µM | 1.41 µM | 0.741 µM
7 | CC(=O)NC(Cc1ccsc1)C(=O)O (centres undefined) | > 100 µM | > 100 µM |  | > 100 µM | > 100 µM | > 100 µM | > 100 µM | > 100 µM | > 100 µM | > 100 µM |  |  |  |  |  |  |  |  | 
8 | COc1cccc(NC(=O)C(=O)C(C(=O)c2ccccc2F)C2OC(=O)c3ccccc32)c1 (centres undefined) | 62.3 µM | 63.6 µM | > 100 µM | > 100 µM | > 100 µM | > 100 µM | 54.1 µM | > 100 µM | 36.2 µM |  |  |  |  |  |  |  |  |  | 
9 | COC(=O)C(C/C=C(\C)c1ccc(Cl)cc1)C(C)=O (centres undefined) | > 100 µM | > 95.9 µM |  | > 90.3 µM | 85.4 µM | > 72 µM | 38.3 µM | > 100 µM | > 86.6 µM | 63.1 µM |  |  |  |  |  |  |  |  | 
10 | COc1ccc2[nH]c3c(C)c4ccnc(NCCCN(C)CCCNc5ccc6ncn7c8ccccc8c(=O)c5c67)c4c(C)c3c2c1 | 5.62 µM | 0.623 µM | 5.49 µM | 5.2 µM | 4.21 µM |  |  | 3.42 µM | 1.12 µM | 4.55 µM |  |  |  |  |  |  |  |  | 
11 | O=C(O)C12CCCCC1CCCC2 (centres undefined) | > 100 µM |  | > 100 µM | > 100 µM |  | > 100 µM | > 100 µM | > 100 µM | > 100 µM |  |  |  |  |  |  |  |  |  | 
